In brackets after ≈: the same amount, converted by molar mass. Several values for one entry are separate records, joined by “and”; a condition that tells them apart may be missing. Identical values can stand only once. Like-named read-outs stand apart in the source and are kept apart here.
Columns and labels:
[1] = system: C. neoformans H99; experiment: Broth microdilution antifungal assay (MIC) in RPMI or urea medium; assay type: cell-based; settings: Cryptococcus neoformans
Description: (§1) C. neoformans H99 (or ATCC 208821), a standard strain, was used to evaluate the antifungal activity of BSU1-BSU11 and BTU1-BTU11 compounds using the broth microdilution method. The assay was performed in two different culture media: the standard medium RPMI 1640 buffered with […] (RMPI), and the Christensen broth (urea medium: 1 g/L peptone, 1 g/L dextrose, 5 g/L sodium chloride, 2 g/L potassium phosphate, 20 g/L urea, 12 mg/L phenol red, pH 7.0). The compounds were dissolved in dimethyl sulfoxide (DMSO) and diluted in both media, obtaining final concentrations from 0.03 to 128 mg/L in a 96-well plate and final DMSO concentration below 0.5%, considered nontoxic. For assay, yeasts were distributed in each well to obtain a final inoculum of 0.5–2.5 × 10^3 CFU/mL, and the plate was incubated at 35 °C for 48 h.
(§2) The MIC values were determined in both media and were defined as the lowest concentrations of BSU1-BSU11 and BTU1-BTU11 that inhibited 50% of fungal growth visually compared with untreated yeasts (growth control). In addition, the urease activity was indicated by medium color change from orange to pink due to ammonia production and the MICure was defined as the lowest concentration that inhibited the urease activity by visual inspection in urea medium with no color changes. For both assays, two controls were included: untreated yeast group for observation of fungal growth pattern or intracellular urease activity, and wells containing only medium for assay sterility control.

[2] = target: T1, yeast urease activity (Cryptococcus neoformans, UniProt O13465); experiment: Inhibition of yeast urease activity in urea (Christensen) medium, colour change (MICure); assay type: cell-based
T1 construct: endogenous in cells; host or cells: Cryptococcus neoformans H99 (ATCC 208821) yeasts in Christensen urea broth
Description: The inhibitory activity against yeast urease was assessed using Christensen’s medium, which contains urea to induce URE1 gene expression. […] Even in the presence of fungal growth, inhibition of urease activity was evidenced by the absence of medium color change, indicating suppressed ammonia production.
as §1, §2

[3] = system: C. neoformans H99; experiment: Minimum fungicidal concentration by subculturing after MIC reading; assay type: cell-based; settings: Cryptococcus neoformans
Description: After MIC readings, the MFC values were determined by subculturing, at 35 °C for 48 h, of all concentrations that inhibited the fungal growth; and then MFC was defined as the lowest concentration of the compound capable of reducing ≥99% viability of the initial fungal inoculum. ,

[4] = target: T2, C. neoformans urease (Cryptococcus neoformans, UniProt O13465); experiment: Urease activity in crude protein extract, indophenol method; assay type: biochemical; settings: ureIC50, BSU series
T2 construct: endogenous in cells; host or cells: Cryptococcus neoformans H99, lysed by sonication; dialysed and lyophilised soluble fraction (total protein)
Description: C. neoformans H99 yeasts were cultivated in 100 mL of Christensen broth for 72 h at 35 °C by shaking at 200 rpm for the obtention of urease as previously described. Briefly, the yeasts were ruptured using a lysis buffer (40 mM Tris-HCl, 20 mM dithiothreitol, 4% Triton X-100, 1 mM ethylenediaminetetraacetic acid, 2 mM phenylmethylsulfonyl fluoride, protease inhibitor cocktail) and an ultrasonic sonicator. After centrifugation, the soluble fraction was dialyzed in a dialysis membrane submerged in 10 mM sodium phosphate buffer, pH 7.0; the sample was lyophilized and stored at −20 °C. Before the assay, the sample was resuspended in 1 mL of sodium phosphate buffer (10 mM, pH 7.0), and the total protein was quantified by the Bradford method.
The urease activity was determined by the indophenol method. In a 96-well microplate, 10 μL of 100 mM urea was added to 45 μL of total protein and 45 μL of BSU1-BSU11 (concentrations of 0.06–1000 μg/L) in phosphate buffer. The reaction was maintained for 10 min under shaking at 600 rpm, at room temperature. Then, 45 μL of solution A (1% phenol; 0.005% sodium nitroprusside) and 70 μL of solution B (0.5% sodium hydroxide; 0.1% sodium hypochlorite) were immediately added to the wells in the dark and incubated for 5 min at 50 °C under shaking at 600 rpm. Urease activity was quantified by measuring absorbance at 670 nm. The inhibitory concentration capable of inhibiting 50% of urease activity (ureIC50) was determined by nonlinear regression calculation using the GraphPad Prism 5.0 software.

[5] = system: C. neoformans; design: method as in PMID 36960287; settings: against C. neoformans; cited from earlier work
[6] = BSU series, 100% inhibition of yeast urease activity in urea medium
[7] = Table S1, urea medium, 100% inhibition of yeast urease activity

T2 sequence (O13465 whole entry): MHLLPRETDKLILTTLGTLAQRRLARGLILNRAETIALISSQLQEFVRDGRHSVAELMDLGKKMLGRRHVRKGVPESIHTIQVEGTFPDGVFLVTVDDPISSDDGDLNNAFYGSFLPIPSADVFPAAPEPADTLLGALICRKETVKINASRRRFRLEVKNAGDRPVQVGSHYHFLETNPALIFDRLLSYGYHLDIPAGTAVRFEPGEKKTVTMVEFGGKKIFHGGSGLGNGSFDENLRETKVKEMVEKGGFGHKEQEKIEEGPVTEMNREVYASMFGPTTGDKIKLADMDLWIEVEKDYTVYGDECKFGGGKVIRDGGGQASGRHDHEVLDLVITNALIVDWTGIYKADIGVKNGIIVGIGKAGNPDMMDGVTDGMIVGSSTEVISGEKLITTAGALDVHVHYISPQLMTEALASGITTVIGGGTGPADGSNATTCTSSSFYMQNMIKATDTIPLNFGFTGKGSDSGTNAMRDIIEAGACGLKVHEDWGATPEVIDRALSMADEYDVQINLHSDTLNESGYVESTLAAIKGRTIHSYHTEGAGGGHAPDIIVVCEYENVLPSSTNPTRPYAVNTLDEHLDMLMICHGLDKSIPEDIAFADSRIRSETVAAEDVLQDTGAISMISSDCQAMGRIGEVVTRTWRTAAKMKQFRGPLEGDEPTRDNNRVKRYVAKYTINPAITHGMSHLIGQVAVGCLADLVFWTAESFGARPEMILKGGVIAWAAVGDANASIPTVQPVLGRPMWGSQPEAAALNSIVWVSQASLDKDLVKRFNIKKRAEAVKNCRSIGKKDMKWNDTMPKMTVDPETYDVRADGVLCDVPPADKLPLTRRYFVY
T1 sequence (O13465 whole entry): as above

Structure (SMILES)	MIC ([1]; H99, 48 h, read-out: MIC RPMI, BSU series, 50% inhibition of fungal growth, RPMI medium, 35 °C, 48 h)	MIC ([1]; H99, 48 h, read-out: MIC urea, BSU series, 50% inhibition of fungal growth, urea medium, 35 °C, 48 h)	MIC ([1]; H99, Table S1, RPMI medium, C. neoformans H99)	MIC ([1]; H99, Table S1, urea medium, C. neoformans H99)	MICURE [2, 6]	MICURE [2, 7]	MFC ([3]; H99, BSU series, after assay in RPMI medium, ≥99% reduction of viability)	MFC ([3]; H99, Table S1, RPMI medium line)	MFC ([3]; H99, Table S1, urea medium line)	IC50 [4]	MIC [5]	MIC ([1]; H99, 48 h, BSU series, 50% inhibition of fungal growth, RPMI medium, 35 °C, 48 h, read-out: MIC RPMI)	MIC ([1]; H99, 48 h, BSU series, 50% inhibition of fungal growth, urea medium, 35 °C, 48 h, read-out: MIC urea)	MIC ([1]; H99, Table S1, RPMI medium, C. neoformans H99, read-out: MIC)	MIC ([1]; H99, Table S1, urea medium, C. neoformans H99, read-out: MIC)	MFC ([3]; H99, BSU series, after assay in RPMI medium, ≥99% reduction of viability, read-out: MFC)	MFC ([3]; H99, Table S1, RPMI medium line, read-out: MFC)	MFC ([3]; H99, Table S1, urea medium line, read-out: MFC)
O=C(NC(=[Se])Nc1ccccc1[N+](=O)[O-])c1ccccc1 [BSU10]	8 µg/mL (≈ 23 µM)	1 µg/mL (≈ 2.87 µM)	8 µg/mL (≈ 23 µM)	1 µg/mL (≈ 2.87 µM)	1 mg/L	1 mg/L	16 µg/mL (≈ 45.9 µM)	16 µg/mL (≈ 45.9 µM)	2 µg/mL (≈ 5.74 µM)	8.68 nM and 8.67 nM								
CCCCNC(=S)NC(=O)c1ccccc1 [Compound 4, N-(butylcarbamothioyl)benzamide]											31.25 to 62.5 µg/mL							
O=C(NC(=[Se])Nc1ccccc1)c1ccccc1 [BSU1]					0.06 mg/L	0.06 mg/L				4.88 nM		2 µg/mL (≈ 6.6 µM)	0.06 µg/mL (≈ 0.198 µM)	2 µg/mL (≈ 6.6 µM)	0.06 µg/mL (≈ 0.198 µM)	2 µg/mL (≈ 6.6 µM)	2 µg/mL (≈ 6.6 µM)	0.12 µg/mL (≈ 0.396 µM)

— PMC12461339, “Benzoylselenoureas: A Novel Dual-Action Inhibitor Targeting Fungal Growth and Urease Activity in Cryptococcus neoformans” (ACS Omega, 2025)
